Literature values in US20220184030A1, “N-Phenylacetyl-L-prolylglycine ethyl ester compositions and methods for using the same” (priority 2020, published 2022).
Like-named read-outs stand apart in the source and are kept apart here. Residues, ends and D or L forms follow the SMILES beside them. *: point of attachment. PhAc = O=C(Cc1ccccc1)*

How the values were obtained:
[1] = not given; remark: listed apart in the source
[2] = users

SMILES	side effects (healthy human subjects, compared with piracetam)	effective dose relative to the effective dose of piracetam ([1]; versus piracetam)	effective dose compared with racetams (in words) ([1]; versus some racetams, such as piracetam)	tolerance or addiction to the compound [2]	tolerance to the nootropic effects [2]	side effects (humans who consume effective doses)
CCOC(=O)CNC(=O)[C@@H]1CCCN1C(=O)Cc1ccccc1 [noopept, N-Phenylacetyl-L-prolylglycine ethyl ester] (PhAc-Pro-Gly-OEt)	fewer side effects	over 50 times smaller in mass	smaller effective dose than some racetams	neither noopept nor CBD has been shown to cause the user to become tolerant or addicted	generally do not develop a tolerance	–
C=C(C)[C@@H]1CCC(C)=C[C@H]1c1c(O)cc(CCCCC)cc1O [CBD, cannabidiol]	–	–	–	neither noopept nor CBD has been shown to cause the user to become tolerant or addicted	generally do not develop a tolerance	generally does not cause significant side effects
